The assay addresses T1, full length SGK1 (Homo sapiens, UniProt O00141).
T1 construct: 125 μM full length SGK1 (Life Technologies Part #PR7358A); purchased Life Technologies PR7358A
T1 sequence (O00141 1-431): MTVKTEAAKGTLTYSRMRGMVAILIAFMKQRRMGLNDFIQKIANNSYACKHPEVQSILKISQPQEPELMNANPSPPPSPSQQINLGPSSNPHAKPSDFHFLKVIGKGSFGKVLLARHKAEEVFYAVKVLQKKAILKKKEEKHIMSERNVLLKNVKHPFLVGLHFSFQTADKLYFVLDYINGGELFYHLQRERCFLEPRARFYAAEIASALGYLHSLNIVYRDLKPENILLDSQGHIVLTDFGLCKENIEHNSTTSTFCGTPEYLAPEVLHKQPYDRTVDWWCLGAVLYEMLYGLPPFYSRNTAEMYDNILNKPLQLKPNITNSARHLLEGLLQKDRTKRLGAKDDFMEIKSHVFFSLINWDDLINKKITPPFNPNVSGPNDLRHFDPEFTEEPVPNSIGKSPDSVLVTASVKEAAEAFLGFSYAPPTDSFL
Nature of the assay: SGK1 inhibition Assay A (Caliper LabChip electrophoretic separation of fluorescent peptide substrate and phosphorylated product). In kind it is biochemical. The following applies: Assay A; 20 μM ATP, 40 min incubation; read-out: SGK1 IC50.

Results on 23 compounds are retold here after patent US20260250290A1 (BRISTOL-MYERS SQUIBB COMPANY, priority 2023, published 2026).

Regarding `NC(=O)c1ccc(-c2cc(N3CCC[C@@H](NC(=O)c4sc(C5CC5)cc4OC4CCNCC4)C3)c3c(N)ncnn23)cc1F` [Example 380, (R)-N-(1-(4-amino-7-(4-carbamoyl-3-fluorophenyl)pyrrolo[2,1-f][1,2,4]triazin-5-yl)piperidin-3-yl)-5-cyclopropyl-3-(piperidin-4-yloxy)thiophene-2-carboxamide], the 50% inhibitory concentration (IC50) came to 0.001 µM. As for `CN1CCC(Oc2cc(C3CC3)sc2C(=O)N[C@@H]2CCCN(c3cc(-c4ccc(C#N)nc4)n4ncnc(N)c34)C2)CC1` [Example 381, (R)-N-(1-(4-amino-7-(6-cyanopyridin-3-yl)pyrrolo[2,1-f][1,2,4]triazin-5-yl)piperidin-3-yl)-5-cyclopropyl-3-((1-methylpiperidin-4-yl)oxy)thiophene-2-carboxamide], the half-maximal inhibitory concentration (IC50) was found to be 0.006 µM.

Regarding `CC(C)N1CCC(Oc2cc(C3CC3)sc2C(=O)N[C@@H]2CCCN(c3cc(-c4ccc(C#N)nc4)n4ncnc(N)c34)C2)CC1` [Example 382, (R)-N-(1-(4-amino-7-(6-cyanopyridin-3-yl)pyrrolo[2,1-f][1,2,4]triazin-5-yl)piperidin-3-yl)-5-cyclopropyl-3-((1-isopropylpiperidin-4-yl)oxy)thiophene-2-carboxamide], the half-maximal inhibitory concentration (IC50) worked out at 0.005 µM. Take `N#Cc1ccc(-c2cc(N3CCC[C@@H](NC(=O)c4sc(Cl)cc4OC4CN(CC(F)F)C4)C3)c3c(N)ncnn23)cn1` [Example 383, (R)—N-(1-(4-amino-7-(6-cyanopyridin-3-yl)pyrrolo[2,1-f][1,2,4]triazin-5-yl)piperidin-3-yl)-5-chloro-3-((1-(2,2-difluoroethyl)azetidin-3-yl)oxy)thiophene-2-carboxamide]: the IC50 came to 0.025 µM. For the compound `CC(=O)N1CC=C(c2cc(N3CCC[C@@H](NC(=O)c4sc(Cl)cc4OC4CN(CC(F)F)C4)C3)c3c(N)ncnn23)C1` [Example 384, (R)-N-(1-(7-(1-acetyl-2,5-dihydro-1H-pyrrol-3-yl)-4-aminopyrrolo[2,1-f][1,2,4]triazin-5-yl)piperidin-3-yl)-5-chloro-3-((1-(2,2-difluoroethyl)azetidin-3-yl)oxy)thiophene-2-carboxamide], the half-inhibitory concentration (IC50) was 0.057 µM. The value for `COC(=O)N1CC=C(c2cc(N3CCC[C@@H](NC(=O)c4sc(Cl)cc4OC4CN(CC(F)F)C4)C3)c3c(N)ncnn23)C1` [Example 385, Methyl (R)-3-(4-amino-5-(3-(5-chloro-3-((1-(2,2-difluoroethyl)azetidin-3-yl)oxy)thiophene-2-carboxamido)piperidin-1-yl)pyrrolo[2,1-f][1,2,4]triazin-7-yl)-2,5-dihydro-1H-pyrrole-1-carboxylate] was 0.021 µM; that for `NC(=O)c1ccc(-c2cc(N3CCC[C@@H](NC(=O)c4sc(Cl)cc4OC4CN(CC(F)F)C4)C3)c3c(N)ncnn23)cc1F` [Example 386, (R)-N-(1-(4-amino-7-(4-carbamoyl-3-fluorophenyl)pyrrolo[2,1-f][1,2,4]triazin-5-yl)piperidin-3-vl)-5-chloro-3-((1-(2,2-difluoroethyl)azetidin-3-yl)oxy)thiophene-2-carboxamide] was 0.006 µM. The value for `Nc1ncnn2c(-c3ccc(=O)n(CC(F)F)c3)cc(N3CCC[C@@H](NC(=O)c4sc(Cl)cc4OC4CN(CC(F)F)C4)C3)c12` [Example 387, (R)-N-(1-(4-amino-7-(1-(2,2-difluoroethyl)-6-oxo-1,6-dihydropyridin-3-yl)pyrrolo[2,1-f][1,2,4]triazin-5-yl)piperidin-3-yl)-5-chloro-3-((1-(2,2-difluoroethyl)azetidin-3-yl)oxy)thiophene-2-carboxamide] was 0.029 µM. Consider `COC(=O)N1CC=C(c2cc(N3CCC[C@@H](NC(=O)c4sc(C5CC5)cc4OC4CNC4)C3)c3c(N)ncnn23)C1` [Example 388, methyl (R)-3-(4-amino-5-(3-(3-(azetidin-3-yloxy)-5-cyclopropylthiophene-2-carboxamido)piperidin-1-yl)pyrrolo[2,1-f][1,2,4]triazin-7-yl)-2,5-dihydro-1H-pyrrole-1-carboxylate], for which the IC50 came to 0.003 µM.

With `NC(=O)c1ccc(-c2cc(N3CCC[C@@H](NC(=O)c4sc(C5CC5)cc4OC4CNC4)C3)c3c(N)ncnn23)cc1F` [Example 389, (R)—N-(1-(4-amino-7-(4-carbamoyl-3-fluorophenyl)pyrrolo[2,1-f][1,2,4]triazin-5-yl)piperidin-3-yl)-3-(azetidin-3-yloxy)-5-cyclopropylthiophene-2-carboxamide], the half-inhibitory concentration (IC50) was 0.0004 µM. The value for `COc1ccc(-n2cc(OCCN(C)C)c(C(=O)N[C@@H]3CCCN(c4cc(-c5ccc(C#N)nc5)n5ncnc(N)c45)C3)n2)cc1` [Example 392] was 0.151 µM; that for `CC(=O)N1CC=C(c2cc(N3CCC[C@@H](NC(=O)c4sc(C(F)F)cc4C4CCNCC4)C3)c3c(N)ncnn23)C1` [Example 393E, (R)—N-(1-(7-(1-acetyl-2,5-dihydro-1H-pyrrol-3-yl)-4-aminopyrrolo[2,1-f][1,2,4]triazin-5-yl)piperidin-3-yl)-5-(difluoromethyl)-3-(piperidin-4-yl)thiophene-2-carboxamide] was 0.162 µM. Regarding `CC(=O)N1CC=C(c2cc(N3CCC[C@@H](NC(=O)c4sc(C(F)F)cc4C4CCN(C)CC4)C3)c3c(N)ncnn23)C1` [Example 393], the IC50 came to 0.197 µM. For `CC(=O)N1CC=C(c2cc(N3CCC[C@@H](NC(=O)c4sc(C(F)F)cc4C4CCN(C(C)C)CC4)C3)c3c(N)ncnn23)C1` [Example 394, (R)-N-(1-(7-(1-acetyl-2,5-dihydro-1H-pyrrol-3-yl)-4-aminopyrrolo[2,1-f][1,2,4]triazin-5-yl)piperidin-3-yl)-5-(difluoromethyl)-3-(1-isopropylpiperidin-4-yl)thiophene-2-], the 50% inhibitory concentration (IC50) was 0.249 µM.

For the compound `N#Cc1ccc(-c2cc(N3CCC[C@@H](NC(=O)c4sc(C(F)F)cc4C4CCNCC4)C3)c3c(N)ncnn23)cn1` [Example 395, (R)-N-(1-(4-amino-7-(6-cyanopyridin-3-yl)pyrrolo[2,1-f][1,2,4]triazin-5-yl)piperidin-3-yl)-5-(difluoromethyl)-3-(piperidin-4-yl)thiophene-2-carboxamide], the IC50 was 0.21 µM. In the case of `CN1CCC(c2cc(C(F)F)sc2C(=O)N[C@@H]2CCCN(c3cc(-c4ccc(C#N)nc4)n4ncnc(N)c34)C2)CC1` [Example 396, (R)-N-(1-(4-amino-7-(6-cyanopyridin-3-yl)pyrrolo[2,1-f][1,2,4]triazin-5-yl)piperidin-3-yl)-5-(difluoromethyl)-3-(1-methylpiperidin-4-yl)thiophene-2-carboxamide], the IC50 was determined as 0.146 µM. With `CC(C)N1CCC(c2cc(C(F)F)sc2C(=O)N[C@@H]2CCCN(c3cc(-c4ccc(C#N)nc4)n4ncnc(N)c34)C2)CC1` [Example 397, (R)-N-(1-(4-amino-7-(6-cyanopyridin-3-yl)pyrrolo[2,1-f][1,2,4]triazin-5-yl)piperidin-3-yl)-5-(difluoromethyl)-3-(1-isopropylpiperidin-4-yl)thiophene-2-carboxamide], the IC50 was found to be 0.134 µM.

For `CC(=O)N1CC=C(c2cc(N3CCC[C@@H](NC(=O)c4sc(C(F)F)cc4C4CCN(C)C4)C3)c3c(N)ncnn23)C1` (stereo partly drawn) [Example 398, N—((R)-1-(7-(1-acetyl-2,5-dihydro-1H-pyrrol-3-yl)-4-aminopyrrolo[2,1-f][1,2,4]triazin-5-yl)piperidin-3-yl)-5-(difluoromethyl)-3-(1-methylpyrrolidin-3-yl)thiophene-2-carboxamide], the IC50 is 0.246 µM.

Take `CC(=O)N1CC=C(c2cc(N3CCC[C@@H](NC(=O)c4sc(C(F)F)cc4C4CCN(C(C)C)C4)C3)c3c(N)ncnn23)C1` (stereo partly drawn) [Example 399, N-((R)-1-(7-(1-acetyl-2,5-dihydro-1H-pyrrol-3-yl)-4-aminopyrrolo[2,1-f][1,2,4]triazin-5-yl)piperidin-3-yl)-5-(difluoromethyl)-3-(1-isopropylpyrrolidin-3-yl)thiophene-2-carboxamide]: the IC50 was 0.31 µM. With `N#Cc1ccc(-c2cc(N3CCC[C@@H](NC(=O)c4sc(C(F)F)cc4C4CCNC4)C3)c3c(N)ncnn23)cn1` (stereo partly drawn) [Example 400, N-((R)-1-(4-amino-7-(6-cyanopyridin-3-yl)pyrrolo[2,1-f][1,2,4]triazin-5-yl)piperidin-3-yl)-5-(difluoromethyl)-3-(pyrrolidin-3-yl)thiophene-2-carboxamide], the IC50 turned out to be 0.299 µM.

Consider `CN1CCC(c2cc(C(F)F)sc2C(=O)N[C@@H]2CCCN(c3cc(-c4ccc(C#N)nc4)n4ncnc(N)c34)C2)C1` (stereo partly drawn) [Example 401, N-((R)-1-(4-amino-7-(6-cyanopyridin-3-yl)pyrrolo [2,1-f][1,2,4]triazin-5-yl)piperidin-3-yl)-5-(difluoromethyl)-3-(1-methylpyrrolidin-3-yl)thiophene-2-carboxamide], for which the IC50 was found to be 0.25 µM. Consider `CN1CCC(c2cc(C(F)F)sc2C(=O)N[C@@H]2CCCN(c3cc(-c4ccc(C(N)=O)nc4)n4ncnc(N)c34)C2)C1` (stereo partly drawn) [Example 402, 5-(4-amino-5-((3R)-3-(5-(difluoromethyl)-3-(1-methylpyrrolidin-3-yl)thiophene-2-carboxamido)piperidin-1-yl)pyrrolo[2,1-f][1,2,4]triazin-7-yl)picolinamide], for which the concentration for half-maximal inhibition (IC50) amounted to 0.219 µM. For `CC(C)N1CCC(c2cc(C(F)F)sc2C(=O)N[C@@H]2CCCN(c3cc(-c4ccc(C#N)nc4)n4ncnc(N)c34)C2)C1` (stereo partly drawn) [Example 403, N-((R)-1-(4-amino-7-(6-cyanopyridin-3-yl)pyrrolo[2,1-f][1,2,4]triazin-5-yl)piperidin-3-yl)-5-(difluoromethyl)-3-(1-isopropylpyrrolidin-3-yl)thiophene-2-carboxamide], the 50% inhibitory concentration (IC50) was 0.229 µM.

One may read the IC50 as the concentration needed to halve the response being measured.
